Data from ChEMBL document CHEMBL1154393, “Neuroprotective and cholinergic properties of multifunctional glutamic acid derivatives for the treatment of Alzheimer's disease” (J Med Chem, 2009).

How the values were obtained:
Cholinesterase [1] = target: Cholinesterase (Homo sapiens, UniProt P06276); test: Inhibition of human BuChE in serum; type: cell-free
Acetylcholinesterase [2] = target: T1, Acetylcholinesterase (Homo sapiens, UniProt P22303); test: Displacement of propidium iodide from AChE peripheral anionic site at 0.3 uM
Acetylcholinesterase [3] = target: T1, Acetylcholinesterase; test: Displacement of propidium iodide from AChE peripheral anionic site at 1 uM
Acetylcholinesterase [4] = target: T1, Acetylcholinesterase; test: Displacement of propidium iodide from AChE peripheral anionic site at 3 uM
SH-SY5Y [5] = test: Neuroprotective activity against human SH-SY5Y cells assessed as protection reduction in H2O2-induced LDH release at 1 uM after 24 hrs; type: functional; set-up: scale not given: the % may be the effect or the level left
SH-SY5Y [6] = test: Neuroprotective activity against human SH-SY5Y cells assessed as protection reduction in H2O2-induced LDH release at 3 uM after 24 hrs; type: functional; set-up: scale not given: the % may be the effect or the level left
SH-SY5Y [7] = test: Neuroprotective activity against human SH-SY5Y cells assessed as protection reduction in H2O2-induced LDH release at 10 uM after 24 hrs; type: functional; set-up: scale not given: the % may be the effect or the level left
SH-SY5Y [8] = test: Neuroprotective activity against human SH-SY5Y cells assessed as protection reduction in H2O2-induced LDH release at 30 uM after 24 hrs; type: functional; set-up: scale not given: the % may be the effect or the level left
SH-SY5Y [9] = test: Neuroprotective activity against H2O2-induced human SH-SY5Y cells assessed as cell viability at 30 uM after 24 hrs; type: functional; settings: read-out: Activity
Cholinesterase [10] = target: Cholinesterase (Equus caballus, UniProt P81908)
Description: Inhibition of BuChE in horse serum by Ellman method

Acetylcholinesterase [11] = target: T1, Acetylcholinesterase
Description: Inhibition of human AChE in erythrocyte

Acetylcholinesterase [12] = target: T2, Acetylcholinesterase (Bos taurus, UniProt P23795)
T2 sequence (P23795 whole entry): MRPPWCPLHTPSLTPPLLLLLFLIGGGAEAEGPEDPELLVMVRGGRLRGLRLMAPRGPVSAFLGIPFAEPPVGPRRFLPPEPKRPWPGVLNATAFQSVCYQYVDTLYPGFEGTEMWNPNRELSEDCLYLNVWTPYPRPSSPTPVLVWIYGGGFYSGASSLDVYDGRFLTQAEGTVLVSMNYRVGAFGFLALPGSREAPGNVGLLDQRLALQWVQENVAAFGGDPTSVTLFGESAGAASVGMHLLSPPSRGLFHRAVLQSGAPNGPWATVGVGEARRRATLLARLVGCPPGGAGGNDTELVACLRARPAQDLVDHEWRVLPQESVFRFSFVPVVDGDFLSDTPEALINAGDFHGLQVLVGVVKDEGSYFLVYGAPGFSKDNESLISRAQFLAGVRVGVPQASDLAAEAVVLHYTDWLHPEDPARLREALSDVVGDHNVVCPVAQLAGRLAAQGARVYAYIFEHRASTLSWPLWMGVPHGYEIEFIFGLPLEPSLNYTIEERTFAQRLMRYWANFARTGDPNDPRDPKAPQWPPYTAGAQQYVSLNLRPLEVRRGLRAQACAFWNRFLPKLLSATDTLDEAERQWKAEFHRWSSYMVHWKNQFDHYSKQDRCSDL
Description: Inhibition of AChE in bovine erythrocyte by Ellman method

SH-SY5Y [13] = test: Neuroprotective activity against rotenone/oligomycin A-treated human SH-SY5Y cells assessed as cytoprotection at 0.1 uM pretreated 24 hrs before rotenone/oligomycin A challenge; type: functional
SH-SY5Y [14] = test: Neuroprotective activity against rotenone/oligomycin A-treated human SH-SY5Y cells assessed as cytoprotection at 0.3 uM pretreated 24 hrs before rotenone/oligomycin A challenge; type: functional
SH-SY5Y [15] = test: Neuroprotective activity against rotenone/oligomycin A-treated human SH-SY5Y cells assessed as cytoprotection at 1 uM pretreated 24 hrs before rotenone/oligomycin A challenge; type: functional
SH-SY5Y [16] = test: Neuroprotective activity against human SH-SY5Y cells assessed as cytoprotection at 0.1 uM coincubated with rotenone/oligomycin A measured after 24 hrs; type: functional
SH-SY5Y [17] = test: Neuroprotective activity against human SH-SY5Y cells assessed as cytoprotection at 0.3 uM coincubated with rotenone/oligomycin A measured after 24 hrs; type: functional
SH-SY5Y [18] = test: Neuroprotective activity against human SH-SY5Y cells assessed as cytoprotection at 1 uM coincubated with rotenone/oligomycin A measured after 24 hrs; type: functional
in vitro = settings: PAMPA
Description: Permeability across PAMPA membrane

SH-SY5Y [19] = test: Neuroprotective activity against rotenone/oligomycin A-treated human SH-SY5Y cells assessed as cytoprotection at 3 uM pretreated 24 hrs before rotenone/oligomycin A challenge; type: functional
SH-SY5Y [20] = test: Neuroprotective activity against human SH-SY5Y cells assessed as cytoprotection at 3 uM coincubated with rotenone/oligomycin A measured after 24 hrs; type: functional

T1 sequence (P22303 whole entry): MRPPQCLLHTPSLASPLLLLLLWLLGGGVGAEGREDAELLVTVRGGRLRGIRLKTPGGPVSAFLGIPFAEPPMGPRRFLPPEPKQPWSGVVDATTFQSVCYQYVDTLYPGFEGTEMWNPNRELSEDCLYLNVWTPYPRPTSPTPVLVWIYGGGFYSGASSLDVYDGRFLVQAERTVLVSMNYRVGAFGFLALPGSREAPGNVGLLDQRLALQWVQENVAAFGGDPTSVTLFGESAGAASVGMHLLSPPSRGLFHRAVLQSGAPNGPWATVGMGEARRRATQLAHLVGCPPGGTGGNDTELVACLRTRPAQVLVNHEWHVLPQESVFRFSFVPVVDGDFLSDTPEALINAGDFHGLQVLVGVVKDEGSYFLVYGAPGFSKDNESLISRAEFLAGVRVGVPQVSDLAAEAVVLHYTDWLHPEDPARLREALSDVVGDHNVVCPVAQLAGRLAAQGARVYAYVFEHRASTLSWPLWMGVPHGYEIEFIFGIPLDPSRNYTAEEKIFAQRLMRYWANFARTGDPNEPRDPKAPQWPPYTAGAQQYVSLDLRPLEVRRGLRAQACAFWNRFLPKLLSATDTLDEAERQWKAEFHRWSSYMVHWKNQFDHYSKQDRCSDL
Chain of Cholinesterase (Homo sapiens, UniProt P06276) (P06276 whole entry): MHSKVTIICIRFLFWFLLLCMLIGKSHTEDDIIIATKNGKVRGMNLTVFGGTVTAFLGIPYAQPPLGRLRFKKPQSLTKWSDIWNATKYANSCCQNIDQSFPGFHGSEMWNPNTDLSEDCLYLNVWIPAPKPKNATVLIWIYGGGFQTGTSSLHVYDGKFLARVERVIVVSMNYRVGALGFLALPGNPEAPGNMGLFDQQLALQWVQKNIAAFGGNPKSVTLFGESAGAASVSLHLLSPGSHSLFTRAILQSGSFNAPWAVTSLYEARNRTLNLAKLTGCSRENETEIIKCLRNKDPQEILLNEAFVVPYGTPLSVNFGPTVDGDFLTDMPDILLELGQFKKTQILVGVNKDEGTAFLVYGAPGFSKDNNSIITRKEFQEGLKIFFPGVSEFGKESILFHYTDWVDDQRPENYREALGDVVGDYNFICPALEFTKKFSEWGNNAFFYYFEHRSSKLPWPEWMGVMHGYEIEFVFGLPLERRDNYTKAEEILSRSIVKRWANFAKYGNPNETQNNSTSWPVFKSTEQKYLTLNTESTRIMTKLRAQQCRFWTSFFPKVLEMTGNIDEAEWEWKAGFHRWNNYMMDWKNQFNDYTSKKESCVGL
Chain of Cholinesterase (Equus caballus, UniProt P81908) (P81908 whole entry): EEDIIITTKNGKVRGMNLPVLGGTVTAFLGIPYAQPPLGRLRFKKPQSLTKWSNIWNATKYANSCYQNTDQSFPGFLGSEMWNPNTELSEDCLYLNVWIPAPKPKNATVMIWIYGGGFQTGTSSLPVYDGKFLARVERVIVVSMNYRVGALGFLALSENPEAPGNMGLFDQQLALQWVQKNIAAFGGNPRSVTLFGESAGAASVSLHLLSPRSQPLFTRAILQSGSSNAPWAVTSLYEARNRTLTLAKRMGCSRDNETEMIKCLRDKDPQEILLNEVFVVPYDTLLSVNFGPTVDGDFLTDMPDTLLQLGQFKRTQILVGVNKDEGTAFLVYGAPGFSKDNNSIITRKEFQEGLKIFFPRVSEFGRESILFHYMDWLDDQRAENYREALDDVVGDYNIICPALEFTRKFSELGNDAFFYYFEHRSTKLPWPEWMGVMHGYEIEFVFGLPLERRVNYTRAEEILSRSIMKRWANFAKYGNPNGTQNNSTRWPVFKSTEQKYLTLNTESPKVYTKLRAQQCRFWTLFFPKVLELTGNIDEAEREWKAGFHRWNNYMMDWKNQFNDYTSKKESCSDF

Compound | IC50 (Cholinesterase [1]) | Activity (Acetylcholinesterase [2]) | Activity (Acetylcholinesterase [3]) | Activity (Acetylcholinesterase [4]) | Activity (SH-SY5Y [5]) | Activity (SH-SY5Y [6]) | Activity (SH-SY5Y [7]) | Activity (SH-SY5Y [8]) | viability at 30 µM (SH-SY5Y [9]) | IC50 (Cholinesterase [10]) | IC50 (Acetylcholinesterase [11]) | IC50 (Acetylcholinesterase [12]) | Activity (SH-SY5Y [14]) | Activity (SH-SY5Y [15]) | Activity (SH-SY5Y [17]) | Activity (SH-SY5Y [18]) | Papp (in vitro) | also measured
CCCCCCOC(=O)[C@H](CCC(=O)NCCC1CCN(Cc2ccccc2)CC1)NC(=O)Cc1cc2ccc(Cl)cc2s1 | 70 nM | 14.7% | 16% | 23.4% | 26.2% | 32.5% | 0% | 0% | 100% | 50 nM | 100 nM | 2300 nM |  |  |  |  |  | 
CCCCCCOC(=O)[C@H](CCC(=O)NCCC1CCN(Cc2ccccc2)CC1)NC(=O)OCc1ccccc1 | 730 nM | 20.8% | 25% | 29.3% | 4.1% | 17.4% | 39.1% | 5.3% | 100% | 750 nM | 250 nM | 1400 nM |  |  |  |  |  | 
CCCCCCOC(=O)[C@H](CCC(=O)NCCC1CCN(Cc2ccccc2)CC1)NC(=O)c1cccs1 | 1800 nM | 7.5% | 10.3% | 15% | 55.1% | 64.5% | 73% | 31.8% | 100% | 1000 nM | 500 nM | 3500 nM | 27.1% | 22.3% | 0% | 7% | 20.9 ×10⁻⁶ cm/s | Activity (SH-SY5Y [13]): 48.9%; Activity (SH-SY5Y [16]): 0%
CCCCCCOC(=O)[C@H](CCC(=O)NCCC1CCN(Cc2ccccc2)CC1)NC(=O)c1cc2ccccc2s1 | 330 nM | 31.5% | 26.5% | 39.7% | 28.7% | 20.9% | 21.2% | 17.9% | 100% | 550 nM | 270 nM | 2500 nM |  |  |  |  | 25.6 ×10⁻⁶ cm/s | 
CCCCCCOC(=O)[C@H](CCC(=O)NCCC1CCN(Cc2ccccc2)CC1)NC(=O)c1cc2ccsc2s1 | 350 nM | 42.2% | 33.3% | 23.3% | 54.5% | 41.6% | 46.4% | 20.3% | 100% | 700 nM | 300 nM | 3500 nM | 46.1% | 45.4% | 20.8% | 30.8% | 28.5 ×10⁻⁶ cm/s | Activity (SH-SY5Y [13]): 34.8%; Activity (SH-SY5Y [16]): 22.3%
CCCCCCOC(=O)[C@H](CCC(=O)NCCC1CCN(Cc2ccccc2)CC1)NC(=O)c1ccccc1 | 1750 nM | 24.7% | 15.9% | 37.3% | 43.9% | 68.1% | 52.4% | 67% | 100% | 1500 nM | 530 nM | 1900 nM | 47.9% | 43.8% | 20.1% | 21% | 18.7 ×10⁻⁶ cm/s | Activity (SH-SY5Y [19]): 38.5%; Activity (SH-SY5Y [20]): 15.1%
CCCCCCOC(=O)[C@H](CCC(=O)NCCC1CCN(Cc2ccccc2)CC1)NC(=O)c1cc(Br)cs1 | 850 nM | 11.3% | < 0.5% | < 0.5% | 63.3% | 84.3% | 66.7% | 66.7% | 100% | 750 nM | 180 nM | 1200 nM | 19% | 27.8% | 19.7% | 0% |  | Activity (SH-SY5Y [19]): 21.4%; Activity (SH-SY5Y [20]): 19.6%
CCCCCCOC(=O)[C@H](CCC(=O)NCCC1CCN(Cc2ccccc2)CC1)NC(=O)c1cc2cccnc2s1 | 830 nM | 37.4% | 35.4% | 27.2% | 0% | 30.7% | 27.9% | 48.8% | 100% | 950 nM | 440 nM | 330 nM |  |  |  |  | 18.8 ×10⁻⁶ cm/s | 
Cc1c(C)c2c(c(C)c1O)CCC(C)(C(=O)O)O2 (centres undefined) [TROLOX] |  |  |  |  | 0% | 0% |  | 57.7% |  |  |  |  |  |  |  |  |  | Activity (SH-SY5Y [19]): 65.1%; Activity (SH-SY5Y [20]): 63.7%
C=CC[N+](C)(C)c1ccc(CCC(=O)CCc2ccc([N+](C)(C)CC=C)cc2)cc1 |  |  |  | 16% |  |  |  |  |  |  |  |  |  |  |  |  |  | 
CCCCCCOC(=O)[C@H](CCC(=O)NCCC1CCN(Cc2ccccc2)CC1)NC(=O)OC(C)(C)C | 3000 nM | 42.3% | 43.6% | 42% | 24.9% | 1.7% | 0% | 0% | 100% | 3500 nM | 950 nM | 5000 nM |  |  |  |  | 11.6 ×10⁻⁶ cm/s | 
